Assay results from ChEMBL document CHEMBL5723588, “Data for DCP probe JNJ-3738” (2024).
Calls of active or inactive are those of the source. The rule behind the calls is not given here.

What was measured:
[1] = target: Cyclin-dependent kinase 13 (Homo sapiens) (UniProt Q14004); test: % inhibition of CDK13 in the DiscoverX Kinase panel at 1.0 µM; conditions: Compound concentration 1.0 uM
[2] = target: Cyclin-dependent kinase 1 (Homo sapiens) (UniProt P06493); test: Inhibition of CDK1 at 1.0 µM in the ActivX; conditions: Compound concentration 1.0 uM
[3] = target: Cyclin-dependent kinase 18 (Homo sapiens) (UniProt Q07002); test: % inhibition of CDK18 in the DiscoverX Kinase panel at 1.0 µM; conditions: Compound concentration 1.0 uM
[4] = target: Cyclin-dependent kinase 20 (Homo sapiens) (UniProt Q8IZL9); test: Inhibition of CDK20 at 1.0 µM in the ActivX; conditions: Compound concentration 1.0 uM
[5] = target: Cyclin-dependent kinase 2 (Homo sapiens) (UniProt P24941); test: % inhibition of CDK2 in the DiscoverX Kinase panel at 1.0 µM; conditions: Compound concentration 1.0 uM
[6] = target: Cyclin-dependent kinase 2 (Homo sapiens) (UniProt P24941); test: Inhibition of CDK2 at 1.0 µM in the ActivX; conditions: Compound concentration 1.0 uM
[7] = target: Cyclin-dependent kinase 15 (Homo sapiens) (UniProt Q96Q40); test: Inhibition of CDK15 at 1.0 µM in the ActivX; conditions: Compound concentration 1.0 uM
[8] = target: Cyclin-dependent kinase 12 (Homo sapiens) (UniProt Q9NYV4); test: Inhibition of CDK12 at 1.0 µM in the ActivX; conditions: Compound concentration 1.0 uM
[9] = target: Cyclin-dependent kinase 5 (Homo sapiens) (UniProt Q00535); test: Inhibition of CDK5 at 1.0 µM in the ActivX; conditions: Compound concentration 1.0 uM
[10] = target: Cyclin-dependent kinase 14 (Homo sapiens) (UniProt O94921); test: Inhibition of CDK14 at 1.0 µM in the ActivX; conditions: Compound concentration 1.0 uM
Cyclin-dependent kinase 14 (Homo sapiens), sequence (O94921 whole entry): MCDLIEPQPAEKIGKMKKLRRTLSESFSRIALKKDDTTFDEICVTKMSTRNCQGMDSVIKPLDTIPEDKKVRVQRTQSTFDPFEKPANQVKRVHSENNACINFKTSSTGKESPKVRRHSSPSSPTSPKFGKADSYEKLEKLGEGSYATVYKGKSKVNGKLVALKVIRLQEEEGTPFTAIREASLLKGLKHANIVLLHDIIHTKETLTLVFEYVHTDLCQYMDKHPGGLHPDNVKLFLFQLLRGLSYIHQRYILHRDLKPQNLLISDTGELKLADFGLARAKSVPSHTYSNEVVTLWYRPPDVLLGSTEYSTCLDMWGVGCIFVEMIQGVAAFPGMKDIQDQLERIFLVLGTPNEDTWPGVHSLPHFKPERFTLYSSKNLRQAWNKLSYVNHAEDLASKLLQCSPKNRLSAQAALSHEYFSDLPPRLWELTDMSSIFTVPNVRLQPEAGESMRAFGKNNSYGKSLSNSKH

[11] = target: Cyclin-dependent kinase 5 (Homo sapiens) (UniProt Q00535); test: % inhibition of CDK5 in the DiscoverX Kinase panel at 1.0 µM; conditions: Compound concentration 1.0 uM
[12] = target: T1, Cyclin-dependent kinase 7 (Homo sapiens, UniProt P50613); test: (§1) In vitro pharmacodynamics: p-RNA pol II Ser-5 (wtCDK7) ( QuantiGene Plex Gene Expression Assay: downregulation at the messenger level of superenhancer driven genes. The level of phosphorylation of Serine 5 on RNA pol II Vs totalRNA pol II is determined. The level of p-RNA pol II Ser-5 detected and stained with primary (a specific rabbit Phospho-Rpb1 CTD (Ser5) antibody) and secondary antibodies (a goat anti rabbit Alexa Fluor 488 conjugated secondary antibody) after 3 hrs incubation with probe.); assay type: functional
T1 sequence (P50613 whole entry): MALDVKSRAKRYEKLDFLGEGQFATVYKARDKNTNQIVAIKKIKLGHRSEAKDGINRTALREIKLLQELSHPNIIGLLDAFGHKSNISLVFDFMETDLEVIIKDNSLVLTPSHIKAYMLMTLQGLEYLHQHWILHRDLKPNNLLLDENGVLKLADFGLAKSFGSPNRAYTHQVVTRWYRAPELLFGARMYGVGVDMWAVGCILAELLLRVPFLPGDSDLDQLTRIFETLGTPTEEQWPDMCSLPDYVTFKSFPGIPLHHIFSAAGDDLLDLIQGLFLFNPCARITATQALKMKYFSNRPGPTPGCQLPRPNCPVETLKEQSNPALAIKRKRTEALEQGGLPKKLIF

[13] = target: T1, Cyclin-dependent kinase 7; test: Inhibition of CDK7 at 1.0 µM in the ActivX; conditions: Compound concentration 1.0 uM
[14] = target: Cyclin-dependent kinase 16 (Homo sapiens) (UniProt Q00536); test: Inhibition of CDK16 at 1.0 µM in the ActivX; conditions: Compound concentration 1.0 uM
Cyclin-dependent kinase 16 (Homo sapiens), sequence (Q00536 whole entry): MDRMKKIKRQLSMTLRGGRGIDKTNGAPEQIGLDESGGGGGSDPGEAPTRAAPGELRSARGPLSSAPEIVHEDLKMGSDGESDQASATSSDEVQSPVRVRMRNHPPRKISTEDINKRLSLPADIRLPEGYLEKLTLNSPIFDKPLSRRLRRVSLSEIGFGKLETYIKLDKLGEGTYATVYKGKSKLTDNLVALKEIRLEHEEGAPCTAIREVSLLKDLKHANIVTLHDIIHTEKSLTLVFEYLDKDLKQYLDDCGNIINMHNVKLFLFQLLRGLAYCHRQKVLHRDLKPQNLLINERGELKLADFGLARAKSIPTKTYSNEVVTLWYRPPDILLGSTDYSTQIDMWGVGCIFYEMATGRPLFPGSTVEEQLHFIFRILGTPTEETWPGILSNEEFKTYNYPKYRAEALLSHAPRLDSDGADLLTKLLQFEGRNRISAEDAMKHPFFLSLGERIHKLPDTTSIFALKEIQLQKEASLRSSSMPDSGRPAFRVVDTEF

[15] = target: Cyclin-dependent kinase 3 (Homo sapiens) (UniProt Q00526); test: % inhibition of CDK3 in the DiscoverX Kinase panel at 1.0 µM; conditions: Compound concentration 1.0 uM
[16] = target: Cyclin-dependent kinase 8 (Homo sapiens) (UniProt P49336); test: Inhibition of CDK8 at 1.0 µM in the ActivX; conditions: Compound concentration 1.0 uM
Cyclin-dependent kinase 8 (Homo sapiens), sequence (P49336 whole entry): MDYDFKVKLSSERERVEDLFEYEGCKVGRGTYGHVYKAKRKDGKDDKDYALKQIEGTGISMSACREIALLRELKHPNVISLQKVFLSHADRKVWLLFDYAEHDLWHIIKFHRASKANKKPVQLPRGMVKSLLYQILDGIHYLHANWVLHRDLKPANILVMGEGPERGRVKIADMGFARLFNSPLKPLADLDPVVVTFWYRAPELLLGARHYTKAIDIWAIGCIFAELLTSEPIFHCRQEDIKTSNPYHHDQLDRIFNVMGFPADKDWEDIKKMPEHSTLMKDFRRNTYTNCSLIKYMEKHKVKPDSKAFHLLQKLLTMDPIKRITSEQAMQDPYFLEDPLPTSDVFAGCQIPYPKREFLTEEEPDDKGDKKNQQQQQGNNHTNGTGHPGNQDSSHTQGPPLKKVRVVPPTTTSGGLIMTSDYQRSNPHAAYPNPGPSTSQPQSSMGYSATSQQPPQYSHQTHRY

[17] = target: T2, CDK7/Cyclin H/MNAT1 (Homo sapiens) (UniProt P51946+P50613+P51948); test: (§2) Biochemical CDK7 assay (KIapp) ( CDK7 catalyzed, ATP-dependent, phosphorylation of a peptide substrate derived from RNA Pol II (CDK7/9-tide). Coupled via lactate dehydrogenase (LDH) and pyruvate kinase (PK) to lactate and NAD+ production, with concomitant depletion of NADH. Continuous coupled assay measures CDK7 catalytic activity through the diminished absorbance intensity at 340 nm that corresponds with NADH depletion.); assay type: functional
[18] = target: Cyclin-dependent kinase 4 (Homo sapiens) (UniProt P11802); test: % inhibition of CDK4 in the DiscoverX Kinase panel at 1.0 µM; conditions: Compound concentration 1.0 uM
Cyclin-dependent kinase 4 (Homo sapiens), sequence (P11802 whole entry): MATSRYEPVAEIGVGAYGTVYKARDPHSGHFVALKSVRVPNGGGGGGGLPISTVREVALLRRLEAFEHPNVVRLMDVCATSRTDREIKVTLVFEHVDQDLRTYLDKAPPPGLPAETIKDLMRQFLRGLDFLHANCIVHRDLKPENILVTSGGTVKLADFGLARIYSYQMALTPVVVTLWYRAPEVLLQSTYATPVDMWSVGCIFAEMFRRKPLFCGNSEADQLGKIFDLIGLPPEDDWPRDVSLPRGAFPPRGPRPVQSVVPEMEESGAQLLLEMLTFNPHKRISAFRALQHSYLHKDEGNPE

[19] = target: Cyclin-dependent kinase 6 (Homo sapiens) (UniProt Q00534); test: Inhibition of CDK6 at 1.0 µM in the ActivX; conditions: Compound concentration 1.0 uM
[20] = target: T3, Cyclin-dependent kinase 11A/B (Homo sapiens) (UniProt Q9UQ88+P21127); test: Inhibition of CDK11 at 1.0 µM in the ActivX; assay type: protein assay; conditions: Compound concentration 1.0 uM
T3 sequence (P21127 whole entry, looked up): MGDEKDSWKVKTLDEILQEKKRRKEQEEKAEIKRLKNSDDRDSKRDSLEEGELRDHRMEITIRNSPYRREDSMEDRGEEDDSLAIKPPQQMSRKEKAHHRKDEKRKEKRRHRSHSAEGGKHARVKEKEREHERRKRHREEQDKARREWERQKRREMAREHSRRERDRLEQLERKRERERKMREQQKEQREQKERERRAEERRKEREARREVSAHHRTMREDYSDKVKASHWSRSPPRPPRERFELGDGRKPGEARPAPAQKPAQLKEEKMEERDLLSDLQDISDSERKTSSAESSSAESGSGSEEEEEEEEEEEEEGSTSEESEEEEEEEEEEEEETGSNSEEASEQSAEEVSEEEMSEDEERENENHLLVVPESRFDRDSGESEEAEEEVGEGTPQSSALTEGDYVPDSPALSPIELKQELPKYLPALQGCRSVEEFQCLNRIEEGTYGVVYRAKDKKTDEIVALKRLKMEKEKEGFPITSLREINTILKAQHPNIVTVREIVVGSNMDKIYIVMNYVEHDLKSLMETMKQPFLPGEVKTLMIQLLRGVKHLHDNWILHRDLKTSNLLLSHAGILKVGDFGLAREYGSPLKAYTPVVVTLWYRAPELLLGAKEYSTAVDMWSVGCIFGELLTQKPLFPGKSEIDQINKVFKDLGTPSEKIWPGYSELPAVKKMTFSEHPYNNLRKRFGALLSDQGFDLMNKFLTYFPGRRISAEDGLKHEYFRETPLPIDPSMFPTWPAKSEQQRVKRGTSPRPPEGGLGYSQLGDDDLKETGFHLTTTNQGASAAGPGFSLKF
T3 sequence (Q9UQ88 whole entry, looked up): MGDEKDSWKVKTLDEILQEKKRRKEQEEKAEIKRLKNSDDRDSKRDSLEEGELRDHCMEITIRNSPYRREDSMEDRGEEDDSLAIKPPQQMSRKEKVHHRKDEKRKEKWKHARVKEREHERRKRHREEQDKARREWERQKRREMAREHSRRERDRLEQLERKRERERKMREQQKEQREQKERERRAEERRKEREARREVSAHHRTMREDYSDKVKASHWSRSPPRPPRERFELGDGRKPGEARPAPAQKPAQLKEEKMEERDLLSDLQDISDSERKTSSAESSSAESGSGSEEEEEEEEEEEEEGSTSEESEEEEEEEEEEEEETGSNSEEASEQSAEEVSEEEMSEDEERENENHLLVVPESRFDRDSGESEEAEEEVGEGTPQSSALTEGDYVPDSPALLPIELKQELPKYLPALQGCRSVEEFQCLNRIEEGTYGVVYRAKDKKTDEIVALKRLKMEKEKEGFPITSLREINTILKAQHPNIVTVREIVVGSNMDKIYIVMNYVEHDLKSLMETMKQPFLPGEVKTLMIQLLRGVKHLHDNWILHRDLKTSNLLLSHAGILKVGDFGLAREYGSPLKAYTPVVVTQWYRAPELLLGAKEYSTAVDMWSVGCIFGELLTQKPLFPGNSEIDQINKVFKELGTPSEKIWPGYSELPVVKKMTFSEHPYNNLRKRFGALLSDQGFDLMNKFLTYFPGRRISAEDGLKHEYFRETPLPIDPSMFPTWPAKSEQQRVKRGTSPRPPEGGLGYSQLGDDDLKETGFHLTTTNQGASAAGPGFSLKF

[21] = target: Cyclin-dependent kinase 13 (Homo sapiens) (UniProt Q14004); test: Inhibition of CDK13 at 1.0 µM in the ActivX; conditions: Compound concentration 1.0 uM
[22] = target: T4, Cyclin-dependent kinase 9 (Homo sapiens, UniProt P50750); test: Inhibition of CDK9 at 1.0 µM in the ActivX; conditions: Compound concentration 1.0 uM
T4 sequence (P50750 whole entry): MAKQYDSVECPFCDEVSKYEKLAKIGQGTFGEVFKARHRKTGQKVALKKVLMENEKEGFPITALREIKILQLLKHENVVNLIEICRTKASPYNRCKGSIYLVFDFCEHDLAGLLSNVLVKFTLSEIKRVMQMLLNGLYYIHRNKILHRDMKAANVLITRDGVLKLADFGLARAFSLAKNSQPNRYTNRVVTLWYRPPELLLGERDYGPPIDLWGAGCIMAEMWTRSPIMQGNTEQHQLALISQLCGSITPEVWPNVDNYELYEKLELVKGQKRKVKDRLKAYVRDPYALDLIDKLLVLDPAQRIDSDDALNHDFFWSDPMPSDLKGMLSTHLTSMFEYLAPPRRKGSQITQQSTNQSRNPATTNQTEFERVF

[23] = target: Calcium/calmodulin-dependent protein kinase kinase 2 (Homo sapiens) (UniProt Q96RR4); test: Inhibition of CAMKK2 at 1.0 µM in the ActivX; conditions: Compound concentration 1.0 uM
[24] = target: T1, Cyclin-dependent kinase 7; test: % inhibition of CDK7 in the DiscoverX Kinase panel at 1.0 µM
[25] = target: Cyclin-dependent kinase 4 (Homo sapiens) (UniProt P11802); test: Inhibition of CDK4 at 1.0 µM in the ActivX; conditions: Compound concentration 1.0 uM
[26] = target: T3, Cyclin-dependent kinase 11A/B (Homo sapiens); test: % inhibition of CDK11 in the DiscoverX Kinase panel at 1.0 µM; assay type: protein assay; conditions: Compound concentration 1.0 uM
[27] = target: Cyclin-dependent kinase 17 (Homo sapiens) (UniProt Q00537); test: Inhibition of CDK17 at 1.0 µM in the ActivX; conditions: Compound concentration 1.0 uM
Cyclin-dependent kinase 17 (Homo sapiens), sequence (Q00537 whole entry, looked up): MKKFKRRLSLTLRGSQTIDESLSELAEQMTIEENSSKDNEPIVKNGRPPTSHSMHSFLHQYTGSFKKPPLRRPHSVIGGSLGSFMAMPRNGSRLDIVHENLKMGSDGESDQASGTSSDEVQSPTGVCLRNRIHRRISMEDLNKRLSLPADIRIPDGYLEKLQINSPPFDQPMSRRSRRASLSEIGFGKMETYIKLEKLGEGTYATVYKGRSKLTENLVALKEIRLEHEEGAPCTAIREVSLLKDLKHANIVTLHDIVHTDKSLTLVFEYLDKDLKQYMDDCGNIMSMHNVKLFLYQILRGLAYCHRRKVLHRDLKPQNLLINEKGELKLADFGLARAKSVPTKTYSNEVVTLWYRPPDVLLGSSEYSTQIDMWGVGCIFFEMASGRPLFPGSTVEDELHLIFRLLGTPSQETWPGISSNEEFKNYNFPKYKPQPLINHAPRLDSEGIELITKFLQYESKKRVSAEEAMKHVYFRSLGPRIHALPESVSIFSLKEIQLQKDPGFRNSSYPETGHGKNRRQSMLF

[28] = target: T2, CDK7/Cyclin H/MNAT1 (Homo sapiens); test: as §2, with “(kinact/KIapp)” for “(KIapp)”; assay type: functional
[29] = target: Cyclin-dependent kinase 11B (Homo sapiens) (UniProt P21127); test: Inhibition of CDK11b at 1.0 µM in the ActivX; conditions: Compound concentration 1.0 uM
Cyclin-dependent kinase 11B (Homo sapiens), sequence (P21127 whole entry): as the sequence (P21127 whole entry, looked up) above

[30] = target: Cyclin-dependent kinase 18 (Homo sapiens) (UniProt Q07002); test: Inhibition of CDK18 at 1.0 µM in the ActivX; conditions: Compound concentration 1.0 uM
[31] = target: Cyclin-dependent kinase 11B (Homo sapiens) (UniProt P21127); test: % inhibition of CDK11b in the DiscoverX Kinase panel at 1.0 µM; conditions: Compound concentration 1.0 uM
[32] = target: T4, Cyclin-dependent kinase 9; test: % inhibition of CDK9 in the DiscoverX Kinase panel at 1.0 µM
[33] = target: Cyclin-dependent kinase 7 (Homo sapiens, UniProt P50613, C312S); test: as §1, with “(CDK7 C312S)” for “(wtCDK7)”; assay type: functional
Cyclin-dependent kinase 7 (Homo sapiens, UniProt P50613, C312S), sequence (P50613 2-346 C312S limits assumed): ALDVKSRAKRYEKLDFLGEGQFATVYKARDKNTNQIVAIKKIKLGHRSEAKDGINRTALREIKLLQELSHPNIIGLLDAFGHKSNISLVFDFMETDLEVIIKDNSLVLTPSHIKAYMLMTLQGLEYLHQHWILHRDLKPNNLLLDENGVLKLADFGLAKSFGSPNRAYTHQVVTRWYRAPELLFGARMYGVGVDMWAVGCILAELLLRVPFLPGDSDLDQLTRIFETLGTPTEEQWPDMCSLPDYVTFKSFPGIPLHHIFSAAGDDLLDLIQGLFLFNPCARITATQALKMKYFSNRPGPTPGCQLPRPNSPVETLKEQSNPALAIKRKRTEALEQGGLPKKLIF

[34] = target: Cyclin-dependent kinase 17 (Homo sapiens) (UniProt Q00537); test: % inhibition of CDK17 in the DiscoverX Kinase panel at 1.0 µM; conditions: Compound concentration 1.0 uM
[35] = target: Serine/threonine-protein kinase 16 (Homo sapiens) (UniProt O75716); test: Inhibition of MPSK1 at 1.0 µM in the ActivX; conditions: Compound concentration 1.0 uM
[36] = target: Cyclin-dependent kinase 14 (Homo sapiens) (UniProt O94921); test: % inhibition of CDK14 in the DiscoverX Kinase panel at 1.0 µM; conditions: Compound concentration 1.0 uM
[37] = target: Cyclin-dependent kinase 10 (Homo sapiens) (UniProt Q15131); test: Inhibition of CDK10 at 1.0 µM in the ActivX; conditions: Compound concentration 1.0 uM
[38] = target: Cyclin-dependent kinase 16 (Homo sapiens) (UniProt Q00536); test: % inhibition of CDK16 in the DiscoverX Kinase panel at 1.0 µM; conditions: Compound concentration 1.0 uM
[39] = target: Cyclin-dependent kinase 15 (Homo sapiens) (UniProt Q96Q40); test: % inhibition of CDK15 in the DiscoverX Kinase panel at 1.0 µM; conditions: Compound concentration 1.0 uM
[40] = target: Cyclin-dependent kinase 8 (Homo sapiens) (UniProt P49336); test: % inhibition of CDK8 in the DiscoverX Kinase panel at 1.0 µM; conditions: Compound concentration 1.0 uM
[41] = target: T1, Cyclin-dependent kinase 7; test: Fluorescent end-point assay ( KM ATP app ~30 µM); assay type: functional

With `CC#CC(=O)N1CC(N2CCC(c3cc(C)c4c(c3)Nc3ncnc(N5CCS(=O)(=O)CC5)c3[C@@H](C)O4)CC2)C1` as the compound, how does the inhibition [1] read?
Its inhibition is 12%.

What about the inhibition [2] of the same compound?
The inhibition was 11%.

And the inhibition [3]?
The inhibition was 25%.

What about the inhibition [4] of the same compound?
The inhibition was 5%.

What about the inhibition [5] of the same compound?
The inhibition was 10%.

And the inhibition [6]?
Its inhibition is 6%.

And the inhibition [7]?
The inhibition was 15%.

And the inhibition [8]?
Its inhibition is 11%.

What about the inhibition [9] of the same compound?
The inhibition was 2%.

What about the inhibition [10] of the same compound?
The inhibition was 11%.

What about the inhibition [11] of the same compound?
Its inhibition is 5%.

And the IC50 [12]?
The IC50 was 58 nM (active).

What about the inhibition [13] of the same compound?
The inhibition was 95%.

What about the inhibition [14] of the same compound?
Its inhibition is 1%.

What about the inhibition [15] of the same compound?
The inhibition was 14%.

And the inhibition [16]?
Its inhibition is 7%.

What about the KIapp [17] of the same compound?
The KIapp was 31 nM.

And the inhibition [18]?
Its inhibition is 10%.

And the inhibition [19]?
The inhibition was 0%.

What about the inhibition [20] of the same compound?
Its inhibition is 7%.

What about the inhibition [21] of the same compound?
The inhibition was 13%.

What about the inhibition [22] of the same compound?
Its inhibition is 45%.

What about the inhibition [23] of the same compound?
Its inhibition is 70%.

What about the IC50 [24] of the same compound?
Its IC50 is 3.8 nM.

And the inhibition ([24]; Compound concentration 1.0 uM)?
The inhibition was 99%.

And the inhibition [25]?
The inhibition was 0%.

And the inhibition [26]?
Its inhibition is 11%.

What about the inhibition [27] of the same compound?
Its inhibition is 17%.

What about the kinact/KIapp [28] of the same compound?
Its kinact/KIapp is 2600 M⁻¹ s⁻¹.

And the inhibition [29]?
Its inhibition is 5%.

And the inhibition [30]?
Its inhibition is 19%.

What about the inhibition [31] of the same compound?
The inhibition was 0%.

And the IC50 [32]?
The IC50 was 933 nM.

What about the inhibition ([32]; Compound concentration 1.0 uM) of the same compound?
Its inhibition is 36%.

What about the IC50 [33] of the same compound?
Its IC50 is > 10000 nM (not active).

What about the inhibition [34] of the same compound?
Its inhibition is 2%.

What about the inhibition [35] of the same compound?
The inhibition was 65%.

And the inhibition [36]?
Its inhibition is 5%.

What about the inhibition [37] of the same compound?
The inhibition was 3%.

And the inhibition [38]?
The inhibition was 5%.

And the inhibition [39]?
Its inhibition is 21%.

What about the inhibition [40] of the same compound?
Its inhibition is over 2%.

Which results are given for `CC(=O)N1CC(N2CCC(c3cc(C)c4c(c3)Nc3ncnc(N5CCS(=O)(=O)CC5)c3[C@@H](C)O4)CC2)C1`?
IC50 [12]: > 10000 nM (not active); IC50 [41]: ~200 nM (not active); IC50 [33]: > 10000 nM (not active)
